Data set [1] has as its system SARS-S PP. It is filed as cell-based, SARS-CoV.
The subject of data set [2] is MERS-S PP. It is filed as cell-based, MERS-CoV.
For data set [3], the system named is Huh7 cells. To be noted: human.
The subject of data set [4] is SARS CoV-2 (USA_WA1/2020).
Data set [5] concerns VSV-G PP. Kind of data set: microbe, parasite or virus in culture. In kind it is cell-based, Vesicular stomatitis virus. To be noted: for EC50: Vesicular stomatitis virus, Huh-7, read-out: VSV-G PP in Huh7 EC50.
Data set [6] relates to MERS-S PP. It is filed as cell-based, MERS-CoV. The source holds these as a separate data set.
Data set [7] concerns Vero E6 cells.
Data set [8] in a line: in vitro. To be noted: human.
Data set [9] relates to VSV-G PP. It is filed as cell-based, Vesicular stomatitis virus.
In data set [10] the test system is SARS CoV-2 (USA_WA1/2020). To be noted: cited from earlier work.
Data set [11] concerns SARS-S PP. It is filed as cell-based, SARS-CoV. This is another data set of the same source.
The test system of data set [12] is Vero E6 cells. The source holds these as a separate data set.

We go through eight compounds from paper PMC7586456 (ACS Pharmacology & Translational Science, 2020).

Read-outs that look alike come from different tables or passages of the source.

For the compound `CCN1CCN(Cc2ccc(Nc3ncc(F)c(-c4cc(F)c5nc(C)n(C(C)C)c5c4)n3)nc2)CC1` [abemaciclib], the “selectivity toward SARS-S-based entry compared with VSV-G in Calu-3 cells” value in data set [1] is over 10 fold. The “selectivity toward MERS-S-based entry compared with VSV-G in Calu-3 cells” value in [2] was over 10 fold. This compound also yielded a Huh7 cytotoxicity cytotox in [3] of 90.0%. The “safety ratio (CC50 of Vero E6 CPE counter screen divided by EC50 of SARS-CoV-2 CPE assay)” value in data set [4] (African green monkey) was 6.3. Besides, in data set [5], the “VSV-G PP in Huh7 efficacy” value worked out at 27.1% and the EC50 (commonly the concentration needed to bring the measured effect to its halfway point) was over 57.5 µM. Moreover, the “MERS-S PP in Huh7 efficacy” value in [6] came out at 82.3%. In addition, in data set [7] (African green monkey), the “Vero E6 cytotoxicity cytotox (SARS-CoV-2 CPE counter screen)” value is 34.0%. In [8], this compound came in with a CC50 of 17.1 µM.
Consider `COc1ccc2cc1Oc1ccc(cc1)C[C@H]1c3c(cc4c(c3Oc3cc5c(cc3OC)CCN(C)[C@@H]5C2)OCO4)CCN1C` [cepharanthine], for which, in data set [9], the “VSV-G PP in Vero E6 efficacy” value came out at 76.9%. Further, in data set [10], the “block of SARS-CoV-2 induced CPE in Vero E6 cells (in words)” value was “able to block SARS-CoV-2 induced CPE in Vero E6 cells, only when added during the viral entry time period, and not the postentry period”. This compound also gave a Huh7 cytotoxicity cytotox in [3] of 88.9%. For the same compound, the “SARS-CoV-2 CPE efficacy” value in [4] turned out to be 92.5%. In [5], the “VSV-G PP in Huh7 efficacy” value worked out at 115.3% and the EC50 was determined as 24.2 µM. Besides, the “SARS-S PP in Vero E6 efficacy” value in data set [11] is listed as 90.9%. Besides, in data set [12] (African green monkey), the “Vero E6 cytotoxicity cytotox” value was determined as 106.2%. Besides, the “MERS-S PP in Huh7 efficacy” value in data set [6] turned out to be 108.4%. Besides, the “Vero E6 cytotoxicity cytotox (SARS-CoV-2 CPE counter screen)” value in [7] (African green monkey) came out at 99.0%. This compound came in with a CC50 in data set [8] of 38.3 µM.
Consider `CN(C)CCCN1c2ccccc2CCc2ccc(Cl)cc21` [clomipramine], for which the “protection against SARS-CoV-2 CPE (in words)” value in [10] is on record as “protect against SARS-CoV-2 CPE”. In addition, in data set [11], the “activity against SARS-S PP entry in the primary screen (in words)” value is reported as “active against SARS-S PP entry”. Besides, the “cytotoxicity in the primary screen (in words)” value in data set [12] is listed as “noncytotoxic”.
`COc1c(OCCCN2CCOCC2)ccc2c1N=C(NC(=O)c1cnc(N)nc1)N1CCN=C21` [copanlisib] showed a Huh7 cytotoxicity cytotox in data set [3] of 13.6%. Moreover, in [4], the “SARS-CoV-2 CPE efficacy” value worked out at 0.0%. Further, in data set [5], the “VSV-G PP in Huh7 efficacy” value is given as 6.2% and the half-maximal effective concentration (EC50) is over 57.5 µM. In addition, the “MERS-S PP in Huh7 efficacy” value in data set [6] is recorded as 65.8%. Also, the “Vero E6 cytotoxicity cytotox (SARS-CoV-2 CPE counter screen)” value in data set [7] (African green monkey) is listed as 42.4%. In [8], the CC50 is over 57.5 µM.
In the case of `CC1=C[C@]23C(=O)[C@@H](C=C(CO)[C@@H](O)[C@]2(O)[C@H]1O)[C@H]1[C@@H](C[C@H]3C)C1(C)C` [ingenol], the “VSV-G PP in Vero E6 efficacy” value in data set [9] is 76.4%. The “safety ratio (CC50 of Vero E6 CPE counter screen divided by EC50 of SARS-CoV-2 CPE assay)” value in data set [4] (African green monkey) stood at 355.7. Further, in data set [11], the “SARS-S PP in Vero E6 efficacy” value was 93.3% and the “selectivity ratio (EC50 of VSV-G PP entry divided by SARS-S PP entry EC50)” value was 12.0. Besides, the “Vero E6 cytotoxicity cytotox” value in [12] (African green monkey) was “–4.0%”. Also, the “activity in MERS-S PP entry in Huh7 cells (in words)” value in data set [6] is “not in MERS-S entry in Huh7 cells”. For the same compound, in data set [7] (African green monkey), the “Vero E6 cytotoxicity cytotox (SARS-CoV-2 CPE counter screen)” value turned out to be 0.0%.
In the case of `C=CC(=O)Nc1cc(Nc2nccc(-c3cn(C)c4ccccc34)n2)c(OC)cc1N(C)CCN(C)C` [osimertinib], the “VSV-G PP in Vero E6 efficacy” value in data set [9] is 118.4%. Also, the “safety ratio (CC50 of Vero E6 CPE counter screen divided by EC50 of SARS-CoV-2 CPE assay)” value in [4] (African green monkey) was 2.5. In addition, in [11], the “SARS-S PP in Vero E6 efficacy” value is 117.5% and the “selectivity ratio (EC50 of VSV-G PP entry divided by SARS-S PP entry EC50)” value is reported as 15.8. For the same compound, in [12] (African green monkey), the “Vero E6 cytotoxicity cytotox” value is reported as 99.6%. Moreover, in data set [7] (African green monkey), the “Vero E6 cytotoxicity cytotox (SARS-CoV-2 CPE counter screen)” value worked out at 99.7%.
Turning to `CC(CN(C)C)CN1c2ccccc2CCc2ccccc21` (stereo not drawn) [trimipramine], in data set [1], the “entry inhibition activity in Calu-3 cells (in words)” value is “not confirmed”. For the same compound, the “VSV-G PP in Vero E6 efficacy” value in [9] is given as 29.2%. The “safety ratio (CC50 of Vero E6 CPE counter screen divided by EC50 of SARS-CoV-2 CPE assay)” value in [4] (African green monkey) is 1.0. For the same compound, the “SARS-S PP in Vero E6 efficacy” value in data set [11] is given as 90.9%. Besides, the “Vero E6 cytotoxicity cytotox” value in data set [12] (African green monkey) is given as 16.6%. In addition, the “Vero E6 cytotoxicity cytotox (SARS-CoV-2 CPE counter screen)” value in data set [7] (African green monkey) came out at 16.6%.
With colforsin [NKH477], the “VSV-G PP in Vero E6 efficacy” value in [9] is listed as 0%. In addition, the EC50 in [9] (read-out: VSV-G PP in Vero E6 EC50) was over 57.5 µM; in data set [4] (read-out: SARS-CoV-2 CPE EC50) it was 23.1 µM; in data set [11] (read-out: SARS-S PP in Vero E6 EC50), 1.36 µM. For the same compound, the “safety ratio (CC50 of Vero E6 CPE counter screen divided by EC50 of SARS-CoV-2 CPE assay)” value in data set [4] turned out to be 1.1. Moreover, in data set [11], the “SARS-S PP in Vero E6 efficacy” value came out at 71.4%. In addition, the CC50 in [12] was over 57.5 µM; in [7] it was 25.2 µM. Besides, in [12], the “Vero E6 cytotoxicity cytotox” value came out at 0%. Further, the “activity in MERS-S PP entry in Huh7 cells (in words)” value in data set [6] is given as “not in MERS-S entry in Huh7 cells”. Moreover, in data set [7], the “Vero E6 cytotoxicity cytotox (SARS-CoV-2 CPE counter screen)” value is given as 42.0%.
